Experimental data published in patent US6333176A (Degussa Aktiengesellschaft, priority 1994, dated 2001).

T1: peptide amidase from Xanthomonas maltophilia (Stenotrophomonas maltophilia, UniProt Q8RJN5)
T1 construct: wild type, not recombinant
T1 sequence (Q8RJN5 34-540): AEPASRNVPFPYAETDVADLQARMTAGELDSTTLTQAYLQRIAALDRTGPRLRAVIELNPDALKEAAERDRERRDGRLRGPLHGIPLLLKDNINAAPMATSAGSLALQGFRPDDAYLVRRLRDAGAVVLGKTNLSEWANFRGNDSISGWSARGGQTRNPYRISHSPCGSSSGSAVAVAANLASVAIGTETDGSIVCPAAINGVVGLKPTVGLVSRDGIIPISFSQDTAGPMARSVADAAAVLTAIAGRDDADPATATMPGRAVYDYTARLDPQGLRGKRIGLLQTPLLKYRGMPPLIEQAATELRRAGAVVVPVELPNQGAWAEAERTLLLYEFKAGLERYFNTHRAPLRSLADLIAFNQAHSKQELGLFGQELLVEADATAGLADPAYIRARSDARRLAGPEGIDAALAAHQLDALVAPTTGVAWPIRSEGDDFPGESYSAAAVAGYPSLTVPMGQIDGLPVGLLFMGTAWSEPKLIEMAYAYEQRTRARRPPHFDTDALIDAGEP

B1: peptide amidase from Xanthomonas maltophilia (Stenotrophomonas maltophilia) (protein)
chain: AEPASRNVPFPYAETDVADLQARMTAGELDSTTLTQAYLQRIAALDRTGPRLRAVIELNPDALKEAAERDRERRDGRLRGPLHGIPLLLKDNINAAPMATSAGSLALQGFRPDDAYLVRRLRDAGAVVLGKTNLSEWANFRGNDSISGWSARGGQTRNPYRISHSPCGSSSGSAVAVAANLASVAIGTETDGSIVCPAAINGVVGLKPTVGLVSRDGIIPISFSQDTAGPMARSVADAAAVLTAIAGRDDADPATATMPGRAVYDYTARLDPQGLRGKRIGLLQTPLLKYRGMPPLIEQAATELRRAGAVVVPVELPNQGAWAEAERTLLLYEFKAGLERYFNTHRAPLRSLADLIAFNQAHSKQELGLFGQELLVEADATAGLADPAYIRARSDARRLAGPEGIDAALAAHQLDALVAPTTGVAWPIRSEGDDFPGESYSAAAVAGYPSLTVPMGQIDGLPVGLLFMGTAWSEPKLIEMAYAYEQRTRARRPPHFDTDALIDAGEP
notes: wild type, not recombinant

Target: T1, peptide amidase from Xanthomonas maltophilia
Experiment: Substrate spectrum of peptide amidase, enzymatic determination of the released ammonia
Assay type: biochemical
Details: substrate 10 mM, 18 mU peptide amidase per ml, 50 mM tris/HCl pH 7.5, 30° C., 3 hours
Protocol: (§1) 18 mU of peptide amidase (purification state after the gel filtration) per ml test batch was used for the substrate spectrum of peptide amidase from Xanthomonas maltophilia. The concentration of the tested substrates was 10 mM in the reaction batch. Unless otherwise indicated, L-amino acid derivatives were used. The incubation took place in 50 mM tris/HCl, pH 7.5 at 30° C. for 3 hours. The reaction was stopped by heating for 5 minutes at 95° C. The determination of activity took place using enzymatic determination of the released ammonia (Bergmeyer, U. (1985): Methods of Enzymatic Analysis, p. 459, VCH Verlagsgesellschaft, Weinheim).

| Molecule | Relative conversion (conversion of N-acetyl amino acid amides, Table 4b) | Relative conversion (influence of protective group and adjacent amino acid, Table 4c) |
| --- | --- | --- |
| CSCCC(NC(C)=O)C(N)=O (racemic) [Ac-D,L-Met-NH2, N-Ac-D,L-methionine amide] | 102% | 102% |

Target: T1, peptide amidase from Xanthomonas maltophilia
Experiment: Enzymatic conversion of unprotected amino acid amides, thin-layer chromatography
Assay type: biochemical
Details: substrate 10 mM
Protocol: as §1
The following thin-layer chromatographic methods were used for the analysis of the substrates and products cited in table 4d. To this end 1 μl of the stopped reaction batch was applied.

| Molecule | Conversion (unprotected amino acid amides) | Conversion (unprotected amino acid amides, Table 4d) |
| --- | --- | --- |
| CC(C)C[C@H](N)C(N)=O [H-Leu-NH2] | 0 | 0 |
| NCCCC[C@H](N)C(N)=O [H-Lys-NH2] | 0 | 0 |
| CSCC[C@H](N)C(N)=O [H-Met-NH2] | 0 | 0 |
| NC(=O)[C@@H](N)Cc1ccccc1 [H-Phe-NH2] | 0 | 0 |
| NC(=O)[C@@H](N)CO [H-Ser-NH2] | 0 | 0 |
| C[C@@H](O)[C@H](N)C(N)=O [H-Thr-NH2] | 0 | 0 |
| NC(=O)[C@@H](N)Cc1c[nH]c2ccccc12 [H-Trp-NH2] | 0 | 0 |
| NC(=O)[C@@H](N)Cc1ccc(O)cc1 [H-Tyr-NH2] | 0 | 0 |
| CC(C)[C@H](N)C(N)=O [H-Val-NH2] | 0 | 0 |
| N=C(N)NCCC[C@H](N)C(N)=O [H-arg-NH2] | 0 | 0 |

Target: T1, peptide amidase from Xanthomonas maltophilia
Experiment: biochemical
Assay type: biochemical
Details: not given

| Molecule | inhibition of the microbial peptide amidase (serine groups) |
| --- | --- |
| NCCc1ccc(S(=O)(=O)F)cc1 [Pefabloc] | Inhibition |

Same assay, conditions: inhibitor 0.3 mM, preincubation 1 h 30° C., Z-Gly-Tyr-NH2 10 mM

| Molecule | residual activity |
| --- | --- |
| NCCc1ccc(S(=O)(=O)F)cc1 [Pefabloc] | 62% |

Same assay, conditions: inhibitor 0.1 Mm, preincubation 1 h 30° C., Z-Gly-Tyr-NH2 10 mM

| Molecule | residual activity |
| --- | --- |
| NCCc1ccc(S(=O)(=O)F)cc1 [Pefabloc] | 82% |

Same assay, conditions: potential inhibitor 10 mM in the test, preincubation 1 h 30° C., Z-Gly-Tyr-NH2 10 mM, 2.5 h

| Molecule | residual activity |
| --- | --- |
| O.O.O.O.O.O.[Cl-].[Cl-].[Co+2] [CoCl2 *6 H2 O] | 80% |
| O.O.O.O.O.O=S(=O)([O-])[O-].[Cu+2] [CuSO4 *5 H2 O] | 103% |
| O.O.O.O.O.O.[Cl][Hg][Cl] [HgCl2 *6 H2 O] | 67% |
| O.O.O.O.O.O.[Cl][Ni][Cl] [NiCl2 *6 H2 O] | 93% |
| NCCc1ccc(S(=O)(=O)F)cc1 [Pefabloc] | 0% |

Same assay, conditions: potential inhibitor 10 mM in the test, preincubation 1 h 30° C., Z-Gly-Tyr-NH2 10 mM, 2.5 h; read-out: residual activity

| Molecule | remaining activity at 10000 µM |
| --- | --- |
| O[C@H](CS)[C@H](O)CS (relative stereo) [1,4-dithio-D,L-threitol] | 96% |
| c1cnc2c(c1)ccc1cccnc12 [1,10-phenanthroline] | 92% |
| c1ccc(-c2ccccn2)nc1 [2,2'-dipyridyl] | 97% |
| CCCCC[C@H](CC(=O)NO)C(=O)N[C@H](C(=O)N1CCC[C@H]1CO)C(C)C [Actinonine] | 106% |
| N[C@@H]1CONC1=O [D-cycloserine] | 100% |
| NNC(N)=O [Semicarbazide] | 99% |

Same assay, conditions: read-out: residual activity

| Molecule | remaining activity at 10000 µM |
| --- | --- |
| O=C(O)CN(CCN(CC(=O)O)CC(=O)O)CC(=O)O [EDTA] | 96% |

Target: T1, peptide amidase from Xanthomonas maltophilia
Experiment: Influence of solvents on the peptide amidase activity
Assay type: biochemical
Details: 10% solvent, pH 7.5, 90 minutes, 30° C.
Protocol: 200 μl enzyme solution (59 μg BSAeq/ml, purification stage after the gel filtration) were compounded in each instance with 700 μl of an appropriate mixture of 50 mM tris/solvent, pH 7.5 for the examinations of the influence of solvents on the peptide amidase activity. Dimethylformamide (DMF), acetone, ethanol and propan-1-ol, which were present in the reaction batch up to 70% by volumetric amount, were tested as solvents. The reaction was started by adding substrate Z-Gly-Tyr-NH2. The incubation took place for 90 minutes at 30° C. Then, aliquots of 100 μl of the reaction batches were provided with 100 μl glacial acetic acid and the enzyme activity determined as described in 1.4. […] It is apparent that at 20% DMF, 94% residual activity is still present and even at 30%, 59% is still present. In the presence of other solvents such as […] the enzyme distinctly loses activity but is nevertheless not completely inactivated at a content of 10% (residual activity 30%).

| Molecule | residual activity of peptidase amidase in presence of solvent |
| --- | --- |
| CC(C)O [propan-2-ol] | 30% |

Same assay, conditions: 20% solvent, pH 7.5, 90 minutes, 30° C.

| Molecule | residual activity of peptidase amidase in presence of solvent |
| --- | --- |
| CN(C)C=O [DMF, Dimethylformamide] | 94% |

Same assay, conditions: 30% solvent, pH 7.5, 90 minutes, 30° C.

| Molecule | residual activity of peptidase amidase in presence of solvent |
| --- | --- |
| CN(C)C=O [DMF, Dimethylformamide] | 59% |

Test system: Xanthomonas maltophilia
Experiment: Inducibility of peptide amidase from Xanthomonas maltophilia
Assay type: cell-based
Details: additive in the nutrient medium (amide 0.5%), 2 days, 30° C., 120 rpm
Protocol: 1 l Erlenmeyer flasks were provided with 200 ml of the nutrient medium used in the second part of the screening for the examinations of the inducibility of peptide amidase from Xanthomonas maltophilia. The amount of yeast extract was raised to 0.1% thereby and only one amide derivative added to 0.5% of the medium in each instance. In addition, media without the addition of amides and with 1.5% yeast extract were examined. Ac-DL-Met-NH2, leucine amide and carnitine amide were used as amides. The flasks were inoculated to 0.5% and agitated 2 days at 30° C. and 120 rpm. The obtention of the raw extracts took place as already described above.

| Molecule | Activity (peptide amidase in raw extract) | Spec. activity (peptide amidase in raw extract) |
| --- | --- | --- |
| CSCCC(NC(C)=O)C(N)=O (racemic) [Ac-D,L-Met-NH2, N-Ac-D,L-methionine amide] | 88 mU/ml | 13 mU/mg BSAeq |
| C[N+](C)(C)CC(O)CC(N)=O (stereo not drawn) [Carnitine amide, carnitine amide] | 30 mU/ml | 7 mU/mg BSAeq |
| CC(C)C[C@H](N)C(N)=O [Leu-NH2, leucine amide] | 15 mU/ml | 3 mU/mg BSAeq |

Same assay, conditions: compared with medium without additive

| Molecule | change of the specific activity by addition of the inductor |
| --- | --- |
| CSCCC(NC(C)=O)C(N)=O (racemic) [Ac-D,L-Met-NH2, N-Ac-D,L-methionine amide] | doubled to tripled |

Target: T1, peptide amidase from Xanthomonas maltophilia
Experiment: Splitting of racemic mixtures of N-protected amino acid amides
Assay type: biochemical
Details: racemic substrate 10 mM, 20 U peptide amidase in 50 ml, 50 mM triethylammonium carbonate pH 7.5, 30° C.
Protocol: The tests for the splitting [separation] of racemic mixtures took place in 50 mM triethylammonium carbonate buffer, pH 7.5. The test batches a 50 ml with 20 U peptide amidase each were incubated at 30° C. Z-D,L-Ala-NH2, Ac-D,L-Met-NH2 and Ac-D,L-neopentylglycine amide (Ac-D,L-Npg-NH2) were available as substrates. The concentration of the substrates in the reaction batch was 10 mM. Specimens were taken at different times, the reaction stopped by heating for 5 minutes at 95° C. and the enantiomeric purity examined with HPLC.

| Molecule | enantiomeric purity examined with HPLC (share of the enantiomer in the acid product) |
| --- | --- |
| CSCC[C@@H](NC(C)=O)C(=O)O [Ac-D-Met-OH] | 0.2-0.3% |
| CC(=O)N[C@H](CC(C)(C)C)C(=O)O [Ac-D-Npg-OH] | 0.2% |
| CSCC[C@H](NC(C)=O)C(=O)O [Ac-L-Met-OH] | 99.7-99.8% |
| CC(=O)N[C@@H](CC(C)(C)C)C(=O)O [Ac-L-Npg-OH, N-acetyl-L-neopentylglycine] | 99.8% |
| C[C@@H](NC(=O)OCc1ccccc1)C(=O)O [Z-D-Ala-OH] | 0.4% |
| C[C@H](NC(=O)OCc1ccccc1)C(=O)O [Z-L-Ala-OH] | 99.6% |

Substrate: NC(=O)[C@H](Cc1ccc(O)cc1)NC(=O)CNC(=O)OCc1ccccc1
Experiment: Enzyme kinetics of peptide amidase
Assay type: biochemical, Xanthomonas maltophilia
Details: other: substrate 0.4 to 20 mM, 50 mM tris/HCl pH 7.5, 2 hours, 30° C.
Protocol: The dependency of the reaction rate of peptide amidase from Xanthomonas maltophilia on the substrate concentration (Z-Gly-Tyr-NH2) was determined and the kinetic parameters determined from the data according to Marquardt. To this end, 50 μl enzyme solution a 27 μg BSAeq/ml were compounded with 400 μl 50 mM tris/HCl buffer, pH 7.5. The reaction was started by adding Z-Gly-Tyr-NH2 as substrate. The substrate was present in the reaction batches in a concentration range of 0.4 to 20 mM. The incubation took place for 2 hours at 30° C. The enzyme activity was then determined as described under 1.4.
The reaction conditions were selected with a view to the pH stability of peptide amidase from Xanthomonas maltophilia.
In order to stop the reaction 100 μl of the reaction solution was removed, compounded with 100 μl glacial acetic acid and filled with 1.4 ml HPLC mobile solvent. An aliquot of 20 μl was analyzed by HPLC. The conditions for the HPLC analysis of Z-Gly-Tyr-NH2 were as follows: […]

| Molecule | Km |
| --- | --- |
| B1 | 820 µM |
